From ChEMBL document CHEMBL1201862, “PubChem BioAssay data set” (2004)
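In this assay, cells in 96-well plates receive the compound at five concentrations for 48 hours. Endpoints are linearly interpolated between the surrounding concentrations. GI50 is the concentration that inhibits growth by half.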 Calls of active or inactive are those of the source. Cut-off read from the data, not from the text of the source: active = GI50 up to about 1.1 µM and inactive = higher.

Legend:
Assay in all cases: NCI tumour cell line growth inhibition, 48 h
HT-29 = tested on: HT-29
TK-10 = tested on: TK-10
UACC-257 = tested on: UACC-257
CAKI-1 = tested on: CAKI-1
OVCAR-8 = tested on: OVCAR-8
CCRF-CEM = tested on: CCRF-CEM
KM12 = tested on: KM12
M14 = tested on: M14
NCI-H23 = tested on: NCI-H23
SF-268 = tested on: SF-268
UO-31 = tested on: UO-31
786-0 = tested on: 786-0
EKVX = tested on: EKVX
PC-3 = tested on: PC-3
MOLT-4 = tested on: MOLT-4
NCI-H522 = tested on: NCI-H522
NCI-H460 = tested on: NCI-H460
BT-549 = tested on: BT-549
A549 = tested on: A549
HOP-92 = tested on: HOP-92

Measured: GI50

CSc1c(C(=O)Nc2ccccc2)c(N)n(N)c(=O)c1C#N
inactive: HT-29 > 100 µM | TK-10 > 100 µM | UACC-257 > 100 µM | CAKI-1 > 100 µM | OVCAR-8 > 100 µM | CCRF-CEM > 100 µM | KM12 > 100 µM | M14 > 100 µM | NCI-H23 > 100 µM | SF-268 > 100 µM | UO-31 > 100 µM | 786-0 > 100 µM | EKVX > 100 µM | PC-3 > 100 µM | MOLT-4 > 100 µM | NCI-H522 64 µM | NCI-H460 > 100 µM | BT-549 > 100 µM | A549 > 100 µM

O=C1Oc2ccccc2C(=O)/C1=C/N1C(=O)N/C(=C\c2cccc(O)c2)C1=O
inactive: HT-29 > 100 µM | TK-10 46.1 µM | UACC-257 > 100 µM | CAKI-1 41 µM | OVCAR-8 33.2 µM | KM12 62.5 µM | M14 83.8 µM | NCI-H23 84.9 µM | HOP-92 > 100 µM | UO-31 29.5 µM | 786-0 74.8 µM | EKVX > 100 µM | PC-3 54.3 µM | MOLT-4 86.5 µM | NCI-H460 59 µM | BT-549 21.8 µM | A549 > 100 µM

Cc1cc2c(cc1Cl)SC(NN(C)C)=NS2(=O)=O
inactive: HT-29 > 10 µM | TK-10 > 10 µM | UACC-257 > 10 µM | CAKI-1 > 10 µM | OVCAR-8 > 10 µM | CCRF-CEM > 10 µM | KM12 > 10 µM | M14 > 10 µM | NCI-H23 > 10 µM | SF-268 > 10 µM | 786-0 > 10 µM | EKVX > 10 µM | PC-3 > 10 µM | MOLT-4 > 10 µM | NCI-H522 > 10 µM | NCI-H460 > 10 µM | BT-549 > 10 µM | A549 > 10 µM

COc1ccc(/C=N/NC(=O)c2ccccc2Nc2ccccc2C(=O)N/N=C/c2ccc(OC)c(OC)c2)cc1OC
inactive: HT-29 > 100 µM | TK-10 > 100 µM | UACC-257 > 100 µM | CAKI-1 > 100 µM | OVCAR-8 > 100 µM | CCRF-CEM > 100 µM | KM12 > 100 µM | M14 36.5 µM | NCI-H23 > 100 µM | HOP-92 71.9 µM | SF-268 > 100 µM | UO-31 > 100 µM | 786-0 > 100 µM | EKVX > 100 µM | PC-3 > 100 µM | MOLT-4 > 100 µM | NCI-H460 > 100 µM | BT-549 > 100 µM | A549 > 100 µM

CCOC(=O)C12C3CCC1C2C(=O)C3 (stereo not drawn)
inactive: HT-29 > 100 µM | TK-10 > 100 µM | UACC-257 > 100 µM | CAKI-1 > 100 µM | OVCAR-8 > 100 µM | CCRF-CEM > 100 µM | KM12 > 100 µM | M14 > 100 µM | NCI-H23 > 100 µM | SF-268 > 100 µM | UO-31 > 100 µM | 786-0 > 100 µM | EKVX > 100 µM | PC-3 > 100 µM | MOLT-4 > 100 µM | NCI-H522 > 100 µM | NCI-H460 > 100 µM | BT-549 > 100 µM | A549 > 100 µM

Cc1cc(OP2(=O)NCc3ncccc3O2)ccc1Cl (stereo not drawn)
inactive: UACC-257 > 100 µM | CAKI-1 > 100 µM | OVCAR-8 > 100 µM | CCRF-CEM > 100 µM | KM12 58.5 µM | M14 > 100 µM | NCI-H23 > 100 µM | HOP-92 > 100 µM | UO-31 > 100 µM | 786-0 > 100 µM | EKVX > 100 µM | PC-3 > 100 µM | MOLT-4 > 100 µM | NCI-H460 > 100 µM | BT-549 > 100 µM | A549 > 100 µM

COc1cc(/C=C2\N=C(c3ccccc3)N(c3nc4cc(C)c(C)cc4s3)C2=O)cc(OC)c1OC
inactive: HT-29 19 µM | TK-10 60 µM | UACC-257 28.9 µM | CAKI-1 35.1 µM | OVCAR-8 19.8 µM | CCRF-CEM 7.41 µM | KM12 21.8 µM | M14 33.3 µM | HOP-92 13 µM | SF-268 23 µM | UO-31 24.7 µM | 786-0 27.6 µM | EKVX 17.5 µM | PC-3 23.9 µM | MOLT-4 3.31 µM | NCI-H460 29.2 µM | BT-549 26.8 µM | A549 30.1 µM

CCN(CC)c1ccc2cc(C(=O)Nc3ccc(C)cc3)c(=N)oc2c1
inactive: HT-29 > 100 µM | UACC-257 > 100 µM | CAKI-1 > 100 µM | OVCAR-8 > 100 µM | CCRF-CEM > 100 µM | KM12 > 100 µM | M14 > 100 µM | NCI-H23 > 100 µM | HOP-92 > 100 µM | SF-268 > 100 µM | 786-0 > 100 µM | EKVX > 100 µM | PC-3 > 100 µM | MOLT-4 > 100 µM | NCI-H460 > 100 µM | BT-549 > 100 µM | A549 > 100 µM
